Experimental data published in patent US7094801B2, “Chalcone derivatives and their use to treat diseases” (Atherogenics, Inc., priority 2001, dated 2006).

Tests used:
VCAM-1 = experiment: In Vitro VCAM-1 Assay (TNF-α stimulated HAEC or HPAEC, cell ELISA); type: cell-based, human; settings: TNF-α (1 ng/ml) stimulated HAEC or HPAEC, approximately 16 hours
Protocol: Cell Culture and compound dosing: Cultured primary human aortic (HAEC) or pulmonary (HPAEC) endothelial cells were obtained from Clonetics, Inc., and were used below passage 9. Cells were seeded in 96 well plates such that they would reach 90–95% confluency by the following day. On the following day the cells were stimulated with TNF-α (1 ng/ml) in the presence or absence of compounds dissolved in DMSO such that the final concentration of DMSO is 0.25% or less. To establish a dose curve for each compound, four concentrations in 2- to 5-fold increments were used. Cells were exposed to TNF-α and compounds for approximately 16 hours. The next day the cells were examined under microscope to score for visual signs of toxicity or cell stress.
Following 16 hr exposure to TNF-α and compound the media was discarded and the cells were washed once with Hanks Balanced Salt Solution (HBSS)/Phosphate buffered saline (PBS) (1:1). Primary antibodies against VCAM-1 (0.25 μg/ml in HBSS/PBS+5% FBS) were added and incubated for 30–60 minutes at 37° C. Cells were washed with HBSS/PBS three times, and secondary antibody Horse Radish Peroxidase (HRP)-conjugated goat anti-mouse IgG (1:500 in HBSS/PBS+5% FBS) were added and incubated for 30 minutes at 37° C. Cells were washed with HBSS/PBS four time and TMB substrate were added and incubated at room temperature in the dark until there was adequate development of blue color. The length of time of incubation was typically 5–15 minutes. 2N sulfuric acid was added to stop the color development and the data was collected by reading the absorbance on a BioRad ELISA plate reader at OD 450 nm. The results are expressed as IC50 values (the concentration (micromolar) of compound required to inhibit 50% of the maximal response of the control sample stimulated by TNF-α only).

Structure (SMILES)	IC50 (VCAM-1; Homo sapiens, 16 h) [µM]	melting point	IC50 (VCAM-1; sodium salt) [µM]
COc1ncc(-c2cc(/C=C/C(=O)c3ccc(C(=O)O)cc3)c(OC)cc2OC)c(OC)n1 [Example 38, 4-{3E-[5-(2,4-Dimethoxy-pyrimidin-5-yl)-2,4-dimethoxy-phenyl]-acryloyl}-benzoic acid]	< 10	203 to 205 °C	–
Nc1ccc(C(=O)/C=C/c2ccc(-c3cccs3)cc2)cc1 [Example 12, 1-(4-Amino-phenyl)-3E-(4-thiophen-2-yl-phenyl)-propenone]	< 5	185 to 187 °C	–
COc1ccc(/C=C/C(=O)c2ccc(C(=O)O)cc2)c(OC)c1-c1cc2ccccc2s1 [Example 44, 4-[3E-(3-Benzo[b]thiophen-2-yl-2,4-dimethoxy-phenyl)-acryloyl]-benzoic acid]	< 1	237 °C (dec.)	–
O=C(/C=C/c1ccc(-c2cccs2)cc1)c1ccc(S)cc1 [Example 22, 1-(4-Mercapto-phenyl)-3E-(4-thiophen-2-yl-phenyl)-propenone]	> 10	> 110 °C (dec.)	–
COc1ccc(/C=C/C(=O)c2ccc(C(=O)O)cc2)c(-c2cccs2)c1 [Example 34, 4-[3E-(4-Methoxy-2-thiophen-2-yl-phenyl)-acryloyl]-benzoic acid]	> 10	209 to 211 °C	–
COc1cc(OC)c(-c2c(C)noc2C)cc1/C=C/C(=O)c1ccc(C(=O)O)cc1 [Example 33, 4-{3E-[5-(3,5-Dimethyl-isoxazol-4-yl)-2,4-dimethoxy-phenyl]-acryloyl}-benzoic acid]	< 5	> 260 °C	–
COc1cc(/C=C/C(=O)c2ccc3[nH]ccc3c2)cc(-c2cccs2)c1OC [Example 27, 3E-(3,4-Dimethoxy-5-thiophen-2-yl-phenyl)-1-(1H-indol-5-yl)-propenone]	< 5	184.5 to 186 °C	–
COc1cc(OC)c(-c2nncn2CC(C)C)cc1/C=C/C(=O)c1ccc(C(=O)O)cc1 [Example 110, 4-{3E-[5-(4-Isobutyl-4H-[1,2,4]triazol-3-yl)-2,4-dimethoxy-phenyl]-acryloyl}-benzoic acid]	> 10	> 240 °C (dec.)	–
O=C(O)c1ccc(/C=C/C(=O)c2ccc(-c3cccs3)cc2)cc1 [Example 18, 4-[3-{4-(thien-2-yl)-phenyl}-3-oxo-E-propenyl]-benzoic acid]	< 5	260 to 265 °C	–
COc1cc(OC)c(-c2c[nH]c(C3CC3)n2)cc1/C=C/C(=O)c1ccc(S(N)(=O)=O)cc1 [Example 111, 4-{3E-[5-(2-Cyclopropyl-1H-imidazol-4-yl)-2,4-dimethoxy-phenyl]-acryloyl}-benzenesulfonamide]	> 10	156 to 160 °C	–
COc1cc(OC)c(-c2cc3ccccc3s2)cc1/C=C/C(=O)c1ccc(C(=O)NC(=O)C(C)C)cc1 [Example 96, 4-[3E-(5-Benzo[b]thiophen-2-yl-2,4-dimethoxy-phenyl)-acryloyl]-N-isobutyryl-benzamide]	< 5	208 to 209 °C	–
O=C(O)c1ccc(C(=O)/C=C/c2ccc(-c3cncnc3)cc2)cc1 [Example 4, 4-[3E-(4-Pyrimidin-5-yl-phenyl)-acryloyl]-benzoic acid]	< 10	> 260 °C	–
COc1cc(OC)c(-c2nn[nH]n2)cc1/C=C/C(=O)c1ccc(C(=O)O)cc1 [Example 75, 4-{3E-[2,4-Dimethoxy-5-(2H-tetrazol-5-yl)-phenyl]-acryloyl}-benzoic acid]	> 10	218 °C (dec.)	–
CSc1ccc(C(=O)/C=C/c2ccc(-c3cccs3)cc2)cc1 [Example 24, 1-(4-Methylthiophenyl)-3E-(4-thiophen-2-yl-phenyl)-propenone]	> 10	138 to 140 °C	–
Cl.O=C(O)c1ccc(C(=O)/C=C/c2cc(-c3cccs3)ccc2OCCCN2CCOCC2)cc1 [Example 65, 4-{3E-[2-(3-Morpholin-4yl-propoxy)-5-thiophen-2-yl-phenyl]-acryloyl}-benzoic acid, hydrochloride]	< 1	234 to 236 °C	–

Further lines, results first:

IC50 (VCAM-1; Homo sapiens, 16 h) [µM]	melting point	IC50 (VCAM-1; sodium salt) [µM]	Structure (SMILES)
< 1	188 to 191 °C (dec.)	–	COc1cc(OCCCN2CCOCC2)c(/C=C/C(=O)c2ccc(C(=O)O)cc2)cc1-c1cccs1.Cl [Example 66, 4-{3E-[4-Methoxy-2-(3-morpholin-4-yl-propoxy)-5-thiophen-2-yl-phenyl]-acryloyl}-benzoic acid, hydrochloride]
< 10	238 °C (dec.)	–	COc1cc(OC)c(-c2cnccn2)cc1/C=C/C(=O)c1ccc(C(=O)O)cc1 [Example 46, 4-[3E-(2,4-Dimethoxy-5-pyrazin-2-yl-phenyl)-acryloyl]-benzoic acid]
< 5	137 to 138 °C	–	COCCOCCOCCOc1cc(OC)c(-c2cccs2)cc1/C=C/C(=O)c1ccc(C(=O)O)cc1 [Example 68, 4-[3E-(4-Methoxy-2-{2-[2-(2-methoxy-ethoxy)-ethoxy]-ethoxy}-5-thiophen-2-yl-phenyl)-acryloyl]-benzoic acid]
> 10	125 °C (dec.)	–	COc1cc(O)c(/C=C/C(=O)c2ccc(C(=O)O)cc2)cc1-c1cccs1 [Example 58, 4-[3E-(2-Hydroxy-4-methoxy-5-thiophen-2-yl-phenyl)-acryloyl]-benzoic acid]
< 5	> 260 °C	–	COc1cc(OC)c(-c2nccs2)cc1/C=C/C(=O)c1ccc(C(=O)O)cc1 [Example 55, 4-[3E-(2,4-Dimethoxy-5-thiazol-2-yl-phenyl)-acryloyl]-benzoic acid]
< 1	240 to 241 °C	–	COc1cc(OC)c(-c2cc3ccccc3s2)cc1/C=C/C(=O)c1ccc(C(N)=O)cc1 [Example 93, 4-[3E-(5-Benzo[b]thiophen-2-yl-2,4-dimethoxy-phenyl)-acryloyl]-benzamide]
< 5	179 to 182 °C	–	COc1cc(OC)c(-c2cccs2)cc1/C=C/C(=O)c1cccc(C(=O)O)c1 [Example 43, 3-[3E-(2,4-Dimethoxy-5-thiophen-2-yl-phenyl)-acryloyl]-benzoic acid]
> 10	196 to 198 °C	–	COc1cc(OC)c(-c2cccs2)cc1/C=C/C(=O)c1ccccc1C(=O)O [Example 35, 2-[3E-(2,4-Dimethoxy-5-thiophen-2-yl-phenyl)-acryloyl]-benzoic acid]
< 10	149 to 151 °C	–	COC(=O)c1ccc(C(=O)/C=C/c2cc(-c3cc4ccccc4s3)c(OC)cc2OC)cc1 [Example 118, 4-[3E-(5-Benzo[b]thiophen-2-yl-2,4-dimethoxy-phenyl)-acryloyl]-benzoic acid methyl ester]
< 10	79 to 81 °C	–	COc1ccc(/C=C/C(=O)c2ccccc2C(=O)O)cc1-c1cccs1 [Example 48, 2-[3E-(4-Methoxy-3-thiophen-2-yl-phenyl)-acryloyl]-benzoic acid]
< 5	210 to 212 °C	–	CCOc1cc(OC)c(/C=C/C(=O)c2ccc(C(=O)O)cc2)cc1-c1cccs1 [Example 53, 4-[3E-(4-Ethoxy-2-methoxy-5-thiophen-2-yl-phenyl)-acryloyl]-benzoic acid]
–	214 to 217 °C (dec.)	< 5	COc1cc(OC)c(-c2cc3ccccc3s2)cc1/C=C/C(=O)c1ccccc1C(=O)[O-].[Na+] [Example 9, 2-[3E-(5-Benzo[b]thiophen-2-yl-2,4-dimethoxy-phenyl)-acryloyl]-benzoic acid, sodium salt]
> 10	256 to 258 °C	–	COc1cc(-c2cccs2)cc(OC)c1/C=C/C(=O)c1ccc(C(=O)O)cc1 [Example 37, 4-[3E-(2,6-Dimethoxy-4-thiophen-2-yl-phenyl)-acryloyl]-benzoic acid]
< 5	187 to 191 °C	–	COc1cc(OCC2CC2)c(/C=C/C(=O)c2ccc(C(=O)O)cc2)cc1-c1cccs1 [Example 32, 4-[3E-(2-Cyclopropylmethoxy-4-methoxy-5-thiophen-2-yl-phenyl)-acryloyl]-benzoic acid]
> 10	219 to 220 °C	–	COc1cc(OCC(CO)CO)c(/C=C/C(=O)c2ccc(C(=O)O)cc2)cc1-c1cccs1 [Example 64, 4-{3E-[2-(3-Hydroxy-2-hydroxymethyl-propoxy)-4-methoxy-5-thiophen-2-yl-phenyl]-acryloyl}-benzoic acid]
< 10	165 to 167 °C	–	COc1cc(OC)c(-c2cc3ccccc3s2)cc1/C=C/C(=O)c1ccc(C(C)=O)cc1 [Example 108, 1-(4-Acetyl-phenyl)-3E-(5-benzo[b]thiophen-2-yl-2,4-dimethoxy-phenyl)-propenone]
< 10	243 °C (dec.)	–	COc1cc(O)c(-c2cccs2)cc1/C=C/C(=O)c1ccc(C(=O)O)cc1 [Example 54, 4-[3E-(4-Hydroxy-2-methoxy-5-thiophen-2-yl-phenyl)-acryloyl]-benzoic acid]
